Experimental data published in US20140357512A1, “HISTONE DEACETYLASE (HDAC) BIOMARKERS IN MULTIPLE MYELOMA” (priority 2013, published 2014).

Test system: human myeloma cell line MM.1S
Assay: SILAC acetylated-lysine peptide profiling, HDAC inhibitor vs DMSO (light/heavy ratio)
Format: cell-based
From the text: An embodiment of the invention comprises utilizing the SILAC method in order to quantitate changes in protein expression between two or more populations of cells. The SILAC method is a technique based on mass spectrometry that detects differences in protein abundance among samples using non-radioactive isotopic labeling. The SILAC method is known in the art, and described in detail in Ong et al., “Stable Isotope Labeling by Amino Acids in Cell Culture, SILAC, as a Simple and Accurate Approach to Expression Proteomics”, Molecular & Cellular Proteomics, vol. 1, pp. 376-386 (2002), which is incorporated herein by reference in its entirety.
Briefly, the SILAC method involves growing two populations of cells in cell culture. The first population of cells is grown in growth media containing normal amino acids (“normal media”). The second population of cells is grown in media lacking a standard essential amino acid (such as lysine), but is then supplemented with a non-radioactive, isotopically labeled form of that essential amino acid (such as lysine labeled with ^13C atoms, rather than normal ^12C atoms), which is called “heavy media”. When the two populations of cells are each growing in the medium, they incorporate the amino acids into all of their proteins. The growth of cells maintained in the heavy media is no different from that in normal media. All peptides containing the heavy amino acids are heavier than their normal counterparts. The cells from each of the two populations of cells are lysed. The lysates from each of the two cell populations are then combined. The combined cell lysates are then analyzed by mass spectrometry. Pairs of chemically identical peptides of different stable isotope composition can be differentiated in a mass spectrometer due to their difference in mass. The ratio of peak intensities in the mass spectrum for such peptide pairs reflects the abundance ratio for the two proteins.
This example describes SILAC studies that were performed to compare the effects of three different HDAC inhibitors (Compound A, Compound B, and tubastatin A) to a control on a human multiple myeloma cell line. The HDAC inhibitors were also compared amongst themselves to determine differences in their effects.
A human myeloma cell line MM.1S was grown using either ^12C (light) or ^13C (heavy) lysine containing culture medium. The “heavy” cells were treated with DMSO as the control, and the “light” cells were treated with a single HDAC inhibitor at 37° C. for 6 hours. The heavy and light cells were lysed, and the lysates were mixed in 1:1 ratio and digested with the protease trypsin. The acetylated lysine containing peptides (due to the action of the HDAC inhibitor) in the digested peptide pool were captured by a non-specific anti-acetylated lysine antibody cocktail (the antibodies identify both light and heavy acetylated peptides), and subjected to mass spectrometry analysis in order to identify thousands of individual peptides.
Thousands of peptides were identified in pairs (^12C and ^13C) due to their known mass differences. The amino acid sequence and quantitative ratio (Light/Heavy) of a given peptide in two differentially treated cell lysates were then determined and annotated with their possible protein (gene) sources.
As stated above, three HDAC inhibitors (Compound A, Compound B, and Tubastatin A) were used. Thus, the SILAC method was performed three times, with a different HDAC inhibitor compared to a control each time. Accordingly, there are three pairs of quantitative data in the table below, i.e., Compound A:DMSO, Compound B:DMSO, and Tubastatin A:DMSO. A cut-off of 1.30 fold of change (increase or decrease) was then used to determine “changed” or “+” in the table, and any peptides with a fold of change less than 1.3 fold were determined to be “unchanged” or “0” in the table. Those peptides that were not identified were marked as “NA” in the table. […]

O=C(CCCCCCNC(=O)c1cnc(N(c2ccccc2)c2ccccc2)nc1)NO [Compound A, 2-(diphenylamino)-N-(7-(hydroxyamino)-7-oxoheptyl)pyrimidine-5-carboxamide]
L/H ratio of acetylated peptide TVGQLYK(ac)EQLAK (SEQ ID NO: 731, Isoform 1 of Myosin-9 [651], MYH9): 0.75 log 2 | L/H ratio of acetylated peptide AAETCQEPK(ac)EFR (SEQ ID NO: 732, NADH dehydrogenase [ubiquinone] 1 alpha subcomplex assembly factor 4 [91], NDUFAF4): 0.75 log 2 | L/H ratio of acetylated peptide VVLIGDSGVGK(ac)SNLLSR (SEQ ID NO: 733, Ras-related protein Rab-11B [24], RAB11B): 0.76 log 2 | L/H ratio of acetylated peptide SGK(ac)YVLGYK (SEQ ID NO: 734, 60S ribosomal protein L30 [26], RPL30): 0.76 log 2 | L/H ratio of acetylated peptide ILMEHIHK(ac)LK (SEQ ID NO: 735, 60S ribosomal protein L19 [144], RPL19): 0.76 log 2 | L/H ratio of acetylated peptide EK(ac)VFYSLMR (SEQ ID NO: 736, Epoxide hydrolase 1 [288], EPHX1): 0.78 log 2 | L/H ratio of acetylated peptide K(ac)FDQLLAEEK (SEQ ID NO: 737, Isoform 1 of Myosin-9 [1445], MYH9): 0.78 log 2 | L/H ratio of acetylated peptide FVEFDMK(ac)PVCK (SEQ ID NO: 738, Isoform 2 of LIM and senescent cell antigen-like-containing domain protein 2 [326], LIMS2): 0.79 log 2 | L/H ratio of acetylated peptide K(ac)GFITVDGR (SEQ ID NO: 739, Laminin subunit alpha-1 [2808], LAMA1): 0.79 log 2 | L/H ratio of acetylated peptide KAEAQIAAK(ac)NLDK (SEQ ID NO: 740, Aspartate aminotransferase mitochondrial [90], GOT2): 0.80 log 2 | L/H ratio of acetylated peptide DK(ac)QFVAK (SEQ ID NO: 741, Staphylococcal nuclease domain-containing protein 1 [341], SND1): 0.80 log 2 | L/H ratio of acetylated peptide AGACNTVIK(ac)QLMR (SEQ ID NO: 742, Isoform SERCA3B of Sarcoplasmic/endoplasmic reticulum calcium ATPase 3 [476], ATP2A3): 0.82 log 2 | L/H ratio of acetylated peptide KQQAK(ac)FDECVLDK (SEQ ID NO: 743, NADH dehydrogenase [ubiquinone] 1 alpha subcomplex subunit 8 [106], NDUFA8): 0.82 log 2 | L/H ratio of acetylated peptide ALCTGEK(ac)GFGYK (SEQ ID NO: 744, Peptidyl-prolyl cis-trans isomerase F mitochondrial [86], PPIF): 0.82 log 2 | L/H ratio of acetylated peptide IYK(ac)SDGIK (SEQ ID NO: 745, ADP/ATP translocase 2 [166], SLC25A5): 0.83 log 2 | L/H ratio of acetylated peptide DEGGK(ac)AFFK (SEQ ID NO: 746, ADP/ATP translocase 2 [268], SLC25A5): 0.84 log 2 | L/H ratio of acetylated peptide SYLK(ac)EFR (SEQ ID NO: 747, Isoform 1 of Trans-23-enoyl-CoA reductase [291], TECR): 0.85 log 2 | L/H ratio of acetylated peptide VPK(ac)TAENFR (SEQ ID NO: 748, Peptidyl-prolyl cis-trans isomerase D [43], PPID): 0.85 log 2 | L/H ratio of acetylated peptide VNCLDK(ac)FWHK (SEQ ID NO: 749, Isoform 1 of LIM and SH3 domain protein 1 [23], LASP1): 0.85 log 2 | L/H ratio of acetylated peptide KGEDFVK(ac)TLK (SEQ ID NO: 750, Malate dehydrogenase mitochondrial [335], MDH2): 0.85 log 2 | L/H ratio of acetylated peptide EAEFTK(ac)SIAK (SEQ ID NO: 751, Signal peptidase complex subunit 2 [191], LOC653566, SPCS2): 0.86 log 2 | L/H ratio of acetylated peptide SGYYK(ac)VLGK (SEQ ID NO: 752, 60S ribosomal protein L27a [110], RPL27A): 0.86 log 2 | L/H ratio of acetylated peptide YVLGYK(ac)QTLK (SEQ ID NO: 753, 60S ribosomal protein L30 [32], RPL30): 0.87 log 2 | L/H ratio of acetylated peptide FEDK(ac)TVAYTEQK (SEQ ID NO: 754, Protein disulfide-isomerase A3 [218], PDIA3): 0.88 log 2 | L/H ratio of acetylated peptide IVNALK(ac)SQVDK (SEQ ID NO: 755, Ornithine aminotransferase mitochondrial [102], OAT): 0.88 log 2 | L/H ratio of acetylated peptide ILEFFGLK(ac)K (SEQ ID NO: 756, Protein disulfide-isomerase [308], P4HB): 0.89 log 2 | L/H ratio of acetylated peptide LCGQDLNK(ac)TSR (SEQ ID NO: 757, Isoform 1 of UDP-N-acetylglucosamine--dolichyl-phosphate N-acetylglucosaminephospho-, DPAGT1): 0.89 log 2 | L/H ratio of acetylated peptide (SFDK(ac)NLYR (SEQ ID NO: 477), DNA replication licensing factor MCM4 [220], MCM4): −0.55 log 2 | L/H ratio of acetylated peptide LFAK(ac)[…] (SEQ ID NO: 98) (SFPQ [319], log 2 scale, drug vs DMSO): 0.00 | L/H ratio of acetylated peptide […](ac)GK (SEQ ID NO: 99) (SFPQ [330], log 2 scale, drug vs DMSO): 0.00 | L/H ratio of acetylated peptide GFGFIK(ac)LESR (SEQ ID NO: 97) (SFPQ [338], log 2 scale, drug vs DMSO): 0.00 | L/H ratio of acetylated peptide […](ac)MILIGR (SEQ ID NO: 100) (SFXN1 [86], log 2 scale, drug vs DMSO): 0.00 | L/H ratio of acetylated peptide […](ac)DK (SEQ ID NO: 103) (SLC25A5 [92], log 2 scale, drug vs DMSO): 0.00 | L/H ratio of acetylated peptide AFFK(ac)GAWSNVLR (SEQ ID NO: 102) (SLC25A5 [272], log 2 scale, drug vs DMSO): 0.00 | L/H ratio of acetylated peptide […](ac)ANVAK (SEQ ID NO: 101) (SLC25A10 [173], log 2 scale, drug vs DMSO): 0.00 | L/H ratio of acetylated peptide TWEK(ac)LLLAAR (SEQ ID NO: 104) (SNORA6, RPSAP15, SNORA62, RPSA [57], log 2 scale, drug vs DMSO): 0.00
